Measured values reported in ChEMBL document CHEMBL3046725, “Synthesis and preliminary antibacterial evaluation of hydroxamic acid and N-formyl hydroxylamine derivatives bearing oxazole ring” (2013).
Converted amounts (≈) assume the structure as drawn.

What was measured:
Type in all cases: functional
[1] = tested on: Streptococcus pneumoniae; test: Antibacterial activity against Streptococcus pneumoniae NCTC 7466 after 24 hr by broth microdilution method; details: NCTC 7466, 24 h
[2] = tested on: Staphylococcus aureus; test: Antibacterial activity against Staphylococcus aureus ATCC 25923 after 24 hr by broth microdilution method; details: ATCC 25923, 24 h
[3] = tested on: Pseudomonas aeruginosa; test: Antibacterial activity against Pseudomonas aeruginosa ATCC 27853 after 24 hr by broth microdilution method; details: ATCC 27853, 24 h
[4] = tested on: Escherichia coli; test: Antibacterial activity against Escherichia coli ATCC 25922 after 24 hr by broth microdilution method; details: ATCC 25922, 24 h

Row | Structure (SMILES) | MIC [1] [µg/mL] | MIC [2] [µg/mL] | MIC [3] [µg/mL] | MIC [4] [µg/mL]
1 | CCCC[C@H](CC(=O)NO)C(=O)N[C@H](c1nc(C(=O)Nc2ccc(C)cc2)co1)C(C)C | 200 (≈ 450 µM) | 50 (≈ 112 µM) | 100 (≈ 225 µM) | 25 (≈ 56.2 µM)
2 | Cl.O=C(O)c1cn(C2CC2)c2cc(N3CCNCC3)c(F)cc2c1=O [CIPROFLOXACIN HYDROCHLORIDE] | 6.25 |  |  | 
3 | CCCC[C@H](CN(O)C=O)C(=O)N[C@H](c1nc(C(=O)Nc2ccc(F)cn2)co1)C(C)C | > 200 | > 200 | > 200 | > 200
4 | CCCC[C@H](CC(=O)NO)C(=O)N[C@H](c1nc(C(=O)Nc2ccc(F)cc2)co1)C(C)C | > 200 | 100 (≈ 223 µM) | 100 (≈ 223 µM) | 100 (≈ 223 µM)
5 | CCCC[C@H](CC(=O)NO)C(=O)N[C@H](c1nc(C(=O)Nc2ccc(F)cn2)co1)C(C)C | > 200 | 100 (≈ 222 µM) | 100 (≈ 222 µM) | 50 (≈ 111 µM)
6 | CCCC[C@H](CN(O)C=O)C(=O)N[C@H](c1nc(C(=O)N(CC)CC)co1)C(C)C | 50 (≈ 122 µM) | 25 (≈ 60.9 µM) | 100 (≈ 244 µM) | 12.5 (≈ 30.4 µM)
7 | CCCC[C@H](CN(O)C=O)C(=O)N[C@H](c1nc(C(=O)Nc2ccc(F)cc2)co1)C(C)C | > 200 | > 200 | > 200 | > 200

Next, values leading:

Row | MIC [1] [µg/mL] | MIC [2] [µg/mL] | MIC [3] [µg/mL] | MIC [4] [µg/mL] | Structure (SMILES)
8 | > 200 | 50 (≈ 118 µM) | 100 (≈ 237 µM) | 25 (≈ 59.2 µM) | CCCC[C@H](CN(O)C=O)C(=O)N[C@H](c1nc(C(=O)N2CCCCC2)co1)C(C)C
9 | > 200 | > 200 | > 200 | > 200 | CCCC[C@H](CN(O)C=O)C(=O)N[C@H](c1nc(C(=O)Nc2ccc(F)c(F)c2)co1)C(C)C
10 | > 200 | > 200 | > 200 | > 200 | CCCC[C@H](CN(O)C=O)C(=O)N[C@H](c1nc(C(=O)Nc2ccc3c(c2)OCO3)co1)C(C)C
11 | > 200 | > 200 | > 200 | > 200 | CCCC[C@H](CN(O)C=O)C(=O)N[C@H](c1nc(C(=O)Nc2ccc(C)cc2)co1)C(C)C
